Consider two compounds from PMC10244169, “Psychedelics promote plasticity by directly binding to BDNF receptor TrkB” (Nature Neuroscience, 2023).

Assay [1] concerns the target T1, WT:Y433F heterodimers (Y433F^+/−) (Rattus norvegicus, UniProt Q63604, Y433F).
T1 construct: expressed in transfected cells; host or cells: N2a
The assay can be described thus: Split-luciferase PCA of TrkB dimerization in N2a cells. The assay is classed as cell-based. To be noted: for TrkB dimerization: WT:Y433F heterodimers; for TrkB dimerization (PCA), group mean (vehicle = 100): Y433F+/-; for TrkB dimerization time course, group mean (time 0 = 100): TRKB.Y433F. An outline of the steps: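 N2a cells transiently co-transfected with split hGLuc-tagged rat TrkB pairs (WT/WT or Y433F/WT) for dimerization; Ketanserin, M100907 or TRKB.FC added 10 min before treatment. Luminescence read after injection of native coelenterazine ([…] final).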

Assay [2] concerns the target T2, TrkB:PLCγ1 colocalization (Rattus norvegicus, UniProt Q63604).
T2 construct: endogenous in cells; host or cells: rat hippocampal neuronal cultures (DIV21)
The assay can be described thus: dSTORM/TIRF single-molecule colocalization in dendritic spines of hippocampal neurons. The assay is classed as cell-based. To be noted: 100 nM, 1 h; for Manders colocalization coefficient, group mean (5b) / Manders colocalization coefficient, group mean (5c): averaged per neuron; for Manders colocalization coefficient, group mean (5b): vehicle 0.2835; for Manders colocalization coefficient, group mean (5c): vehicle 0.3968. The method, then: Then, dishes were fixed with 4% paraformaldehyde (PFA) containing 0.1 µm TetraSpeck beads (Invitrogen, T7279; 1:100). After washing with PBS, dishes were incubated with the blocking buffer (0.1% Triton X-100, 0.05% Tween-20, 10% normal donkey serum, 1% BSA and 0.1% gelatin in PBS) for 1 h at room temperature. Next, dishes were incubated with goat anti-TrkB (R&D Systems, AF1494; 1:100) and rabbit anti-PLCγ1 (Cell Signaling Technologies, 5690S; 1:100) primary antibodies diluted in detergent-free blocking buffer overnight at 4 °C. After washing with PBS, dishes were incubated with Alexa Fluor 647-conjugated donkey anti-goat (Invitrogen, A32849; 1:500) and CF568-conjugated donkey anti-rabbit (Biotium, 20098; 1:500) secondary antibodies in PBS. Dishes were washed and stored in PBS until imaging. For dSTORM/TIRF, we used fresh blinking buffer (0.5 mg ml^−1 glucose oxidase, 40 µg ml^−1 catalase, 10% glucose, 10 mM NaCl, 10 mM cysteamine and 50 mM Tris–HCl, pH 8.0). We used a Nikon Eclipse Ti-E N-STORM/TIRF microscope equipped with an ApoTIRF 100×/1.49 numerical aperture (NA) objective, a Perfect Focus System for Z focus stabilization, an Andor iXon + 897 back-illuminated EMCCD camera (512 × 512), laser lines 405 nm (100 mW), 561 nm (150 mW) and 647 nm (300 mW) and a 405/488/561/647 nm laser quad band filter cube. Image acquisition was performed with the central 256 × 256 pixels and a total of 20,000 frames (exposure time of 15 ms) for both channels using the NIS-Elements Advanced Research software (Nikon). The 405 nm laser was progressively raised to maintain a constant number of localizations per frame. After chromatic aberration correction by correlation with the fluorescent bead fiducials, fitting of the blinking events to build the single-molecule localization coordinate map and drift correction were performed using the Huygens Localizer 21.04 software (Scientific Volume Imaging). Before identifying particles, the first 512 frames of each channel were discarded, a temporal filter length (factor 30) was applied to determine background signal, and data were prefiltered through the standard deviation of a Gaussian filter (σ = 1.0). Next, a threshold calculated from the standard deviation of unfiltered data was multiplied by a factor of 0.75 for the red and 1.5 for the far-red channels and applied to distinguish particles from the background. Pixels from filtered data with values larger than the threshold were considered as candidates for single-molecule localizations. Pixels in filtered data with higher values than surrounding pixels were detected as local maxima. The least-squares fitting was applied for subpixel localization of detected particles, with a fixed full width at half maximum of the Gaussian point spread function of 256 nm. Finally, the resulting single-molecule localization coordinate maps were analyzed with Coloc-Tesseler 1.0 (ref. [79]) by an experimenter blinded to treatment to compute the Manders colocalization coefficients of TrkB (M^TrkB) and PLCγ1 (M^PLCγ1) in dendritic spines on the basis of their overlapping Voronoi diagrams.

For the next assay, the target named is T3, TrkB S440A (Rattus norvegicus, UniProt Q63604, S440A).
T3 construct: expressed in transfected cells; host or cells: HEK293T
T3 sequence (Q63604 32-821 S440A): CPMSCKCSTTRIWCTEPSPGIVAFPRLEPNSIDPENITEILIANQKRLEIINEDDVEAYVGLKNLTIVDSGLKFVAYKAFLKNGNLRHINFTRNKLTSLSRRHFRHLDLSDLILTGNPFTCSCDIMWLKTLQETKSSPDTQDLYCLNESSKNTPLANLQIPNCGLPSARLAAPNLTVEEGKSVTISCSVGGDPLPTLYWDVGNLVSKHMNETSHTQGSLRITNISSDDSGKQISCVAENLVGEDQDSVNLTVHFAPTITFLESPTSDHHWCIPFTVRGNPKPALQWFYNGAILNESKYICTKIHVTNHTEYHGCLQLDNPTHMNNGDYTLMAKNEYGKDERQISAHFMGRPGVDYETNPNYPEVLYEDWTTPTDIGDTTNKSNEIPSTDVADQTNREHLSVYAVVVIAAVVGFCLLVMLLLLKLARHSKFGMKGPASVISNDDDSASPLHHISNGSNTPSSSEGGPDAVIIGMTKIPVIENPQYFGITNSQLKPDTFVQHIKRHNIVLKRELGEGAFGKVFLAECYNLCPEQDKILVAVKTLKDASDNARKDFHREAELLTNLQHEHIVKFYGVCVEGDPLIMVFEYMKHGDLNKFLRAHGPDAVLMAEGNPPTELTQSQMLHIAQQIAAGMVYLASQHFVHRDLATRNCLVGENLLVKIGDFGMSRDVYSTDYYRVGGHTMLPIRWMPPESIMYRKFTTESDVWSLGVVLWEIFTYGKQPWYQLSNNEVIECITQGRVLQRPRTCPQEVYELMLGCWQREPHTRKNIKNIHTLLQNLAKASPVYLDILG
The assay is described as follows: ^3H-LSD saturation binding, TrkB mutant.

A further assay addresses T4, TrkB WT (Rattus norvegicus, UniProt Q63604).
T4 construct: expressed in transfected cells; host or cells: HEK293T
The assay can be described thus: Radioligand dissociation binding of ^3H-LSD. To be noted: ext fig 1c, n=3. The method, then:
(§1) Binding assays were performed as previously described with minor modifications. […] Samples from mouse embryo (E18) brains were also lysed, vortexed, sonicated and centrifuged for binding assays. Plates were then washed with PBS. […] For the competition binding assays with biotinylated R,R-HNK, the amino-biotinylation of R,R-HNK was performed using a commercial kit (Thermo Scientific, EZ-Link NHS-PEG4 Biotinylation Kit, 21455) and the reaction monitored by MS. A mixture of biotinylated R,R-HNK (10 µM) and unlabeled compounds (1 pM to 10 µM) in PBS was added to the 96-well plates containing the immunoprecipitated TrkB and incubated for 1 h at room temperature. […] Luminescence was determined via streptavidin conjugated with horseradish peroxidase (HRP; Thermo Fisher Scientific, 21126; 1:5,000, 1 h at room temperature) in reaction with the Pierce ECL substrate (Thermo Fisher Scientific, 32106). Luminescence from blank wells that contained all reagents but the sample lysates was used to determine nonspecific binding. To obtain the binding curves, results from binding assays were fitted to the equation of specific binding with Hill slope from GraphPad Prism 9.2. To calculate koff values, results were fitted to the equation of dissociation of one phase exponential decay from GraphPad Prism 9.2.

Another assay concerns the target T5, TrkB Y433F (Rattus norvegicus, UniProt Q63604, Y433F).
T5 construct: expressed in transfected cells; host or cells: HEK293T
The assay is described as follows: Radioligand dissociation binding of ^3H-LSD. To be noted: ext fig 1c, n=3. The method, then:
as §1

T2 sequence (Q63604 32-821): as the sequence (Q63604 32-821 S440A) above, with A409S counted along it
T4 sequence (Q63604 32-821): as the sequence (Q63604 32-821 S440A) above, with A409S counted along it
T1 sequence (Q63604 32-821 Y433F): as the sequence (Q63604 32-821 S440A) above, with Y402F, A409S counted along it
T1 sequence (Q63604 32-821, stated change not applied): as the sequence (Q63604 32-821 S440A) above, with A409S counted along it
T5 sequence (Q63604 32-821 Y433F): as the sequence (Q63604 32-821 S440A) above, with Y402F, A409S counted along it

For the compound `CN(C)CCc1c[nH]c2cccc(O)c12` [PSI, psilocin], the TrkB dimerization entry in assay [1] is “this effect is abolished”. The “TrkB dimerization (PCA), group mean (vehicle = 100)” value stood at 110.2 in assay [1] (1nM), 90.04 in assay [1] (10nM), 84.39 in assay [1] (100nM) and 73.58 in assay [1] (1uM). Further, the “TrkB:PLCγ1 colocalization in dendritic spines” value in assay [2] is reported as “increase TrkB:PLCγ1 colocalization in dendritic spines”. In addition, the “Manders colocalization coefficient, group mean (5b)” value in assay [2] is 0.5082. The “Manders colocalization coefficient, group mean (5c)” value in assay [2] was determined as 0.7477.
Consider `CCN(CC)C(=O)C1C=C2c3cccc4[nH]cc(c34)CC2N(C)C1` (stereo not shown) [LSD, lysergic acid diethylamide], for which, on TrkB S440A, the affinity, expressed as Kd, was 0.714 nM. The “Bmax (best-fit, 1a)” value on TrkB S440A (S440A) worked out at 114.7. Also, the “h (best-fit, 1a)” value at TrkB S440A (S440A) worked out at 1.945. In addition, the LSD binding result on TrkB S440A (S440A mutation) is “did not influence LSD binding”. The “K (dissociation, one phase exponential decay)” value on TrkB WT was found to be 0.008532; on TrkB Y433F, 0.02402. The “NS (dissociation, one phase exponential decay)” value was 2.667 on TrkB WT and 6.951 on TrkB Y433F. Besides, the “Y0 (dissociation, one phase exponential decay)” value at TrkB WT was 110.7; at TrkB Y433F it was 108.1. The “TrkB dimerization time course, group mean (time 0 = 100)” value in assay [1] (time 15) is reported as 129.4; in assay [1] (time 60) it was 136.7; in assay [1] (time 120) it was 108.3; in assay [1] (time 240) it was 108.9; in assay [1] (time 480) it was 60.33. For the same compound, in assay [1], the TrkB dimerization result is recorded as “this effect is abolished”. Further, the “TrkB dimerization (PCA), group mean (vehicle = 100)” value in assay [1] (1nM) was found to be 113.3; in assay [1] (10nM) it was 121; in assay [1] (100nM), 118.1; in assay [1] (1uM), 109.7. The “TrkB:PLCγ1 colocalization in dendritic spines” value in assay [2] is “increase TrkB:PLCγ1 colocalization in dendritic spines”. The “Manders colocalization coefficient, group mean (5b)” value in assay [2] was determined as 0.6227. Also, in assay [2], the “Manders colocalization coefficient, group mean (5c)” value turned out to be 0.6899.
